ChEMBL document CHEMBL3046182, “Development of a rapid resistance monitoring bioassay for codling moth larvae” (2012)
Values after ≈ are worked out from the molar mass of the structure shown.

Tests used:
Type in all cases: functional
Cydia pomonella [1] = assay: Insecticidal activity against po dosed fourth-instar larvae of Cydia pomonella (codling moth) lab-s measured after 4 days
Cydia pomonella [2] = assay: Insecticidal activity against po dosed Cydia pomonella (codling moth) lab-s neonate measured after 4 days
Cydia pomonella [3] = assay: Insecticidal activity against fourth-instar larvae of Cydia pomonella (codling moth) lab-s compound applied topically measured after 4 days; conditions: topical, 96 h
Cydia pomonella [4] = assay: Insecticidal activity against Cydia pomonella (codling moth) lab-s neonate compound applied topically measured after 4 days; conditions: topical, 96 h
Cydia pomonella [5] = assay: Insecticidal activity against po dosed 20 day-old larvae of Cydia pomonella (codling moth) reared on apple assessed as mortality measured after 4 days
Cydia pomonella [6] = assay: Insecticidal activity against po dosed 15 day-old larvae of Cydia pomonella (codling moth) reared on apple assessed as mortality measured after 4 days
Cydia pomonella [7] = assay: Insecticidal activity against po dosed 10 day-old larvae of Cydia pomonella (codling moth) Owensby reared on apple assessed as mortality measured after 4 days
Cydia pomonella [8] = assay: Insecticidal activity against po dosed 10 day-old larvae of Cydia pomonella (codling moth) Gilbert reared on apple assessed as mortality measured after 4 days
Cydia pomonella [9] = assay: Insecticidal activity against po dosed 11 day-old larvae of spinetoram-selected Cydia pomonella (codling moth) reared on apple assessed as mortality measured after 4 days
Cydia pomonella [10] = assay: Insecticidal activity against po dosed 10 day-old larvae of Chlorantraniliprole-selected Cydia pomonella (codling moth) reared on apple assessed as mortality measured after 4 days
Cydia pomonella [11] = assay: Insecticidal activity against po dosed 15 day-old larvae of Cydia pomonella (codling moth) lab-s reared on apple assessed as mortality measured after 4 days
Cydia pomonella [12] = assay: Insecticidal activity against po dosed 10 day-old larvae of Cydia pomonella (codling moth) lab-s reared on apple assessed as mortality measured after 4 days
Cydia pomonella [13] = assay: Insecticidal activity against po dosed 10 day-old larvae of Cydia pomonella (codling moth) lab-s measured after 4 days
Cydia pomonella [14] = assay: Resistant ratio of LC50 for fourth-instar larvae of Cydia pomonella (codling moth) Holt to fourth-instar larvae of Cydia pomonella (codling moth) Glibert
Cydia pomonella [15] = assay: Resistant ratio of LC50 for Cydia pomonella (codling moth) Holt neonate to Cydia pomonella (codling moth) Glibert neonate
Cydia pomonella [16] = assay: Resistant ratio of LC50 for fourth-instar larvae of Cydia pomonella (codling moth) lab-s to fourth-instar larvae of Cydia pomonella (codling moth) Glibert
Cydia pomonella [17] = assay: Resistant ratio of LC50 for Cydia pomonella (codling moth) lab-s neonate to Cydia pomonella (codling moth) Glibert neonate
Cydia pomonella [18] = assay: Insecticidal activity against po dosed fourth-instar larvae of Cydia pomonella (codling moth) Gilbert measured after 4 days
Cydia pomonella [19] = assay: Insecticidal activity against po dosed Cydia pomonella (codling moth) Gilbert neonate measured after 4 days
Cydia pomonella [20] = assay: Insecticidal activity against po dosed fourth-instar larvae of Cydia pomonella (codling moth) Holt measured after 4 days
Cydia pomonella [21] = assay: Insecticidal activity against po dosed Cydia pomonella (codling moth) Holt neonate measured after 4 days
Cydia pomonella [22] = assay: Insecticidal activity against po dosed fourth-instar larvae of Cydia pomonella (codling moth) Clear Creek abandoned measured after 4 days
Cydia pomonella [23] = assay: Insecticidal activity against po dosed Cydia pomonella (codling moth) Clear Creek abandoned neonate measured after 4 days

## CCO[C@@H]1[C@@H](OC)[C@H](C)O[C@@H](O[C@@H]2C[C@H]3CC[C@@H]4[C@@H](C=C5C(=O)[C@H](C)[C@@H](O[C@H]6CC[C@H](N(C)C)[C@@H](C)O6)CCC[C@H](CC)OC(=O)C[C@H]54)[C@@H]3C2)[C@@H]1OC.CCO[C@@H]1[C@@H](OC)[C@H](C)O[C@@H](O[C@H]2C[C@H]3[C@@H]4C=C5C(=O)[C@H](C)[C@@H](O[C@H]6CC[C@H](N(C)C)[C@@H](C)O6)CCC[C@H](CC)OC(=O)C[C@H]5[C@@H]4C=C(C)[C@@H]3C2)[C@@H]1OC
Cydia pomonella [1]
  LC50: 0.16 µg/mL
Cydia pomonella [2]
  LC50: 0.09 µg/mL

## C/C(=N\C#N)N(C)Cc1ccc(Cl)nc1 [ACETAMIPRID]
Cydia pomonella [3]
  LC50: 1.12 µg/mL (≈ 5.03 µM)
Cydia pomonella [4]
  LC50: 0.26 µg/mL (≈ 1.17 µM)

## CNC(=O)c1cc(Cl)cc(C)c1NC(=O)c1cc(Br)nn1-c1ncccc1Cl [CHLORANTRANILIPROLE]
Cydia pomonella [1]
  LC50: 0.19 µg/mL (≈ 0.393 µM)
Cydia pomonella [2]
  LC50: 0.2 µg/mL (≈ 0.414 µM)

## COc1cccc(C(=O)NN(C(=O)c2cc(C)cc(C)c2)C(C)(C)C)c1C [METHOXYFENOZIDE]
Cydia pomonella [5]
  mortality: 50%
Cydia pomonella [6]
  mortality: 55.1%
Cydia pomonella [7]
  mortality: 31.3%
Cydia pomonella [8]
  mortality: 93.6%
Cydia pomonella [9]
  mortality: 83.3%
Cydia pomonella [10]
  mortality: 100%
Cydia pomonella [11]
  mortality: 98.4%
Cydia pomonella [12]
  mortality: 99.2%
Cydia pomonella [13]
  LC95: 10 µg/mL (≈ 27.1 µM)
Cydia pomonella [14]
  RatioLC50: 16.7
Cydia pomonella [15]
  RatioLC50: 24
Cydia pomonella [16]
  RatioLC50: 6.6
Cydia pomonella [17]
  RatioLC50: 8
Cydia pomonella [18]
  LC50: 15.2 µg/mL (≈ 41.3 µM)
  LC99: 202 µg/mL
Cydia pomonella [19]
  LC50: 9.5 µg/mL (≈ 25.8 µM)
  LC99: 389.4 µg/mL
Cydia pomonella [20]
  LC50: 38.7 µg/mL (≈ 105 µM)
  LC99: 5061.9 µg/mL
Cydia pomonella [21]
  LC50: 28.5 µg/mL (≈ 77.3 µM)
  LC99: 5320.8 µg/mL
Cydia pomonella [22]
  LC50: 1.35 µg/mL (≈ 3.66 µM)
  LC99: 28.38 µg/mL
Cydia pomonella [23]
  LC50: 95 µg/mL (≈ 258 µM)
  LC99: 14.57 µg/mL
Cydia pomonella [1]
  LC50: 2.3 µg/mL (≈ 6.24 µM)
  LC99: 18.27 µg/mL
Cydia pomonella [2]
  LC50: 1.2 µg/mL (≈ 3.26 µM)
  LC99: 14.15 µg/mL

## O=C(NC(=O)c1c(F)cccc1F)Nc1ccc(OC(F)(F)C(F)OC(F)(F)F)c(Cl)c1 (configuration not stated) [NOVALURON]
Cydia pomonella [1]
  LC50: 1.16 µg/mL (≈ 2.35 µM)
Cydia pomonella [2]
  LC50: 1.08 µg/mL (≈ 2.19 µM)
